Several values for one entry are separate records, joined by “and”; a condition that tells them apart may be missing. Identical values can stand only once.
Assays:
[1] = system: 3T3-L1 cells (adipocytes); assay: Intracellular retention property in 3T3-L1 cells; type: cell-based
Method: (§1) Using a fluorescence microscope (IX71, manufactured by Olympus Corporation), fluorescence imaging images of cells were acquired over time, and the photostability (It/I0) and the retention property were measured.
For evaluation of the intracellular retention property of each reagent, each fluorescent reagent was added to 3T3-L1 cells (adipocytes) to a final concentration of 100 nM (for Lipi-Green, 500 nM), and imaging images were acquired after 30 minutes of culture and 24 hours after washing away of the reagent.

[2] = Measurement of fluorescence lifetime in solvents; type: physicochemical
Method: The fluorescence lifetime (τf) of each compound in each solvent was measured using a compact fluorescence lifetime measurement apparatus (Quntaurus-Tau, manufactured by Hamamatsu Photonics K.K.).

[3] = Solubility / precipitation in water (physiological saline); type: physicochemical
HeLa cells = assay: Cytotoxicity with cell growth-cytotoxicity measurement kit CCK-8; type: cell-based; details: 0.1, 0.5, 1, 10, 20, 40 or 50 μM, 24 hours
Method: Further, HeLa cells were plated on a 96-well plate, and allowed to adhere to a glass surface. Thereafter, PC6S was added to the medium (to a final concentration of 0.1, 0.5, 1, 10, 20, 40, or 50 μM), and culture was performed for 24 hours. After washing, cytotoxicity was evaluated using a cell growth-cytotoxicity measurement kit CCK-8. Two hours after the addition of the reagent, the absorbance was measured.

[4] = system: lipid droplets in the liver; assay: Fluorescence intensity and lifetime imaging of liver lipid droplets in normal and fatty-liver model mice; type: in vivo, mice (C57BL/6J)
Method: Fluorescence imaging of lipid droplets in a body tissue, and of an adipose tissue, using PC6S is described below. […] Therefore, PC6S cannot be administered to mice. In view of this, 5 mM stock solution was added (at 10% in terms of the volume ratio) to physiological saline supplemented with 10% bovine serum albumin. […] Regarding administration of MNs-NB, a stock solution in DMSO is directly administered to mice. Since administration of DMSO may cause death of mice from shock, the administration method in the present invention is thought to be a safer method. Here, 100 to 200 μL of 500 μM solution (50 to 100 nmol) was administered to the tail vein of a mouse under anesthesia, and a fluorescence imaging experiment was carried out using a confocal laser microscope (excitation wavelength, 488 nm; monitoring wavelength, 510 to 560 nm). In the present experiment, a microscope capable of acquiring fluorescence lifetime images as well as fluorescence intensity images (FLIM: fluorescence lifetime imaging microscope) (Simple-Tau-150-DX; Becker & Hickl) was used. The animal experiment was carried out in accordance with the animal experiment safety regulations in Gunma University.
Fatty-liver model mice are known to have a liver containing a larger amount of lipid droplets accumulated therein compared to normal mice. Here, fatty-liver model mice were prepared by feeding mice (C57BL/6J) with an ultra-high-fat, choline-deficient, methionine-reduced diet for 2 weeks or 10 weeks. […] Furthermore, in the mouse fed with the fatty diet for 10 weeks, intense fluorescence was found from structures having shapes different from those of lipid droplets, in addition to the fluorescence from lipid droplets. This is thought to be autofluorescence due to infiltration of macrophage-derived cells caused by liver fibrosis.

[5] = system: 3T3-L1 cells (adipocytes); assay: Intracellular photostability under excitation light in 3T3-L1 cells; type: cell-based
Method: as §1
The photostability and the retention property are important factors in long-term measurement for, for example, tracing the processes of formation, fusion, and degradation of lipid droplets. Each fluorescent reagent was added to 3T3-L1 cells (adipocytes) to a final concentration of 100 nM, and the cells were cultured for 30 minutes. After washing the cells, the cells were irradiated with an excitation light required for imaging (450 to 500 nm; for LipiDye, an excitation wavelength of 400 to 440 nm), to evaluate the photostability. By regarding the time immediately after the irradiation as Second 0, imaging images were acquired at 20-second intervals for analysis of the image intensity.

[6] = Measurement of maximum absorption wavelength, maximum fluorescence wavelength and fluorescence quantum yield in solvents; type: physicochemical
Method: Using a luminescent quantum yield measurement apparatus ([…]-01, manufactured by Hamamatsu Photonics K.K.), the maximum absorption wavelength (λabs/nm), the maximum fluorescence wavelength (λflu/nm), and the fluorescence quantum yield (Φf) of the compound in each solvent were measured. The absorption spectrum was measured using an ultraviolet and visible spectrophotometer (Ubest-550, manufactured by JASCO Corporation), and the fluorescence emission spectrum was measured using a fluorescence spectrophotometer (F-7000, manufactured by Hitachi, Ltd.)

[7] = system: lipid droplets in HeLa cells; assay: Fluorescence imaging of lipid droplets in oleic acid-treated HeLa cells; type: cell-based
Description: Since LipiDye requires use of an excitation wavelength of about 405 nm, there is a concern about phototoxicity to cells in cases of long observation.

[8] = system: lipid droplets in HeLa cells; assay: Multicolor imaging and time-course imaging of lipid droplet formation in HeLa cells; type: cell-based
Method: Further, HeLa cells were cultured for 30 minutes in a medium to which PC6S was added to a final concentration of 100 nM, and PC6S unincorporated in the cells was removed, followed by acquiring a fluorescence imaging image (Hour 0) using an inverted fluorescence microscope in the same manner as in Example 2. The cells were cultured in the presence of 400 μM oleic acid for 24 hours, and their fluorescence imaging images were acquired 4, 8, 12, and 24 hours later.

CCN(CC)c1ccc2cc3cc(-c4nc5ccccc5s4)c(=O)oc3cc2c1 [PC6S, 3-(Benzo[d]thiazol-2-yl)-8-(diethylamino)-2H-benzo[g]chromen-2-one]
intracellular retention property ([1]; 100 nM (Lipi-Green 500 nM), 3T3-L1 cells, 24 hours after washing away of the reagent): high intracellular retention properties
intracellular retention property ([1]; summary grade, Table 3): ⊚
τf (fluorescence lifetime) ([2]; in Bu2O (dibutyl ether)): 2.91 ns
τf (fluorescence lifetime) ([2]; in DMSO): 3.46 ns
τf (fluorescence lifetime) ([2]; in EtOAc): 3.41 ns
τf (fluorescence lifetime) ([2]; in MeCN): 3.72 ns
τf (fluorescence lifetime) ([2]; in n-Hexane): 2.55 ns
solubility in water (physiological saline) [3]: remarkably low solubility
precipitation ([3]; 5 mM stock solution added at 10% volume ratio to physiological saline supplemented with 10% bovine serum albumin): precipitation of PC6S could be suppressed
precipitation ([3]; 5 mM stock solution in DMSO added at 10% volume ratio to physiological saline): precipitation of PC6S occurs
cytotoxicity (HeLa cells): no remarkable cytotoxicity was found at any concentration
lipid droplet imaging of liver surface ([4]; 100 nmol, tail vein, fatty-liver model mouse (Week 2)): large lipid droplets were imaged over the entire liver surface
lipid droplet imaging of liver surface ([4]; 100 nmol, tail vein, mouse fed with a normal diet): small lipid droplets could be found in hepatocytes
fluorescence lifetime imaging of liver surface ([4]; 100 nmol, tail vein, mouse fed with the fatty diet for 10 weeks): capable of distinguishing between the autofluorescence (blue) and the PC6S fluorescence (orange)
Imaging of lipid dropletts in a tissue ([4]; summary grade, Table 3): ⊚
photostability (fluorescence intensity ratio It/I0 against irradiation time) ([5]; 100 nM, 3T3-L1 cells, relative to the commercially available reagents): highest photostability
Photostability ([5]; summary grade, Table 3): ⊚
Φf (fluorescence quantum yield) ([6]; in Bu2O (dibutyl ether)): 0.88
λmax abs (maximum absorption wavelength) ([6]; in Bu2O (dibutyl ether)): 468 nm
λmax flu (maximum fluorescence wavelength) ([6]; in Bu2O (dibutyl ether)): 538 nm
Φf (fluorescence quantum yield) ([6]; in DMSO): 0.83
λmax abs (maximum absorption wavelength) ([6]; in DMSO): 504 nm
λmax flu (maximum fluorescence wavelength) ([6]; in DMSO): 642 nm
Φf (fluorescence quantum yield) ([6]; in EtOAc): 0.84
λmax abs (maximum absorption wavelength) ([6]; in EtOAc): 483 nm
λmax flu (maximum fluorescence wavelength) ([6]; in EtOAc): 585 nm
Φf (fluorescence quantum yield) ([6]; in MeCN): 0.80
λmax abs (maximum absorption wavelength) ([6]; in MeCN): 492 nm and 493 nm
λmax flu (maximum fluorescence wavelength) ([6]; in MeCN): 625 nm
fluorescence quantum yield ([6]; in any of the solvents of Table 1): not less than 0.8
Φf (fluorescence quantum yield) ([6]; in n-Hexane): 0.89
λmax abs (maximum absorption wavelength) ([6]; in n-Hexane): 455 nm
λmax flu (maximum fluorescence wavelength) ([6]; in n-Hexane): 498 nm
imaging of lipid droplets / lipid droplet selectivity in HeLa cells ([7]; 100 nM reagent, 30 minutes, 400 μM oleic acid 48 hours): capable of clear imaging of lipid droplets
fluorescence intensity of HeLa cells ([7]; 100 nM reagent, 30 minutes, compared with BODIPY493/503 or Lipi Green): higher fluorescence intensities
Brightness in cells ([7]; summary grade, Table 3): ⊚
Selectivity for lipid droplets ([7]; summary grade, Table 3): ◯
imaging of lipid droplet formation over time ([8]; 100 nM, then 400 μM oleic acid, 4, 8, 12 and 24 hours): the process of gradual formation of lipid droplets could be imaged over time
multicolor imaging ([8]; combined use with Hoechst 33342 and Mito tracker red): multicolor imaging was possible
